Measured values reported in patent publication US7713934B2, “Thrombin peptide derivatives” (The Board of Regents, The University of Texas System, priority 2002, dated 2010).

How the values were obtained:
[1] = test system: full-thickness, 2 cm-diameter excisions on the dorsum; assay: Wound closure, full-thickness excisions in rats (Example 2, TP508-Ser); type: in vivo, male Sprague-Dawley rats; settings: for wound area reduced: 0.1 μg per wound, topical; for wound healing activity compared with TP508: Example 2, 0.1 μg per wound
Description: (§1) Two, full-thickness, 2 cm-diameter excisions were created on the dorsum of male Sprague-Dawley rats. […] Wound size was determined on post-wounding days 3, 7, and 10 by tracing the perimeter of the wound onto an acetate sheet and using digital analysis to compute the surface area of each wound.
Each group contained 8 rats.
(§2) Saline was used as the vehicle for the experiment. […] The working solution was maintained on ice throughout the experiment.
(§3) The working solution was maintained on ice throughout the experiment.
(§4) On post-wounding days 3, 7, and 10, the wounds were evaluated by tracing the wound perimeter onto a flexible acetate sheet, then determining wound area with digital analysis software.
Each data point represents the mean and standard error of the mean of 16 wounds from 8 rats. Statistical comparisons between groups were made using a repeated measures analysis of variance; Fisher's LSD was used for post hoc testing between groups.

NIL cells = settings: increasing concentrations, quiescent NIL cells, 2 and 4 nM alpha-thrombin; FIG. 6 of U.S. Pat. No. 5,500,412; cited from earlier work
thrombin receptors = assay: Peptide competition for [125I]-alpha-thrombin binding to ME cells; settings: for Concentration Required for 30% Inhibition: [125I]-alpha-thrombin binding to ME cells; for fold higher concentration than p508-530 required for 30% inhibition of [125I]-alpha-thrombin binding: relative to p508-530
Text: Thrombin peptide derivatives are believed to activate cells by binding to a high-affinity cell-surface thrombin receptor known as the non-proteolytically-activated thrombin receptor (hereinafter “NPAR”) (R. Horvat, et. al., J. Cell Sci. 108, 1155-1164 1995). Compounds which stimulate NPAR are said to be thrombin receptor agonists. NPAR activation can be assayed based on the ability of molecules to stimulate cell proliferation when added to fibroblasts in the presence of submitogenic concentrations of thrombin or molecules that activate protein kinase C or compete with ^125I-thrombin for high affinity binding17 to thrombin receptors, as disclosed in U.S. Pat. Nos. 5,352,664 and 5,500,412 and in Glenn et al., J. Peptide Research 1:65 (1988).
To further identify regions of thrombin involved in high-affinity binding and generation of mitogenic signals, two peptides representing specific domains within p508-530 were tested. The first peptide represented residues 519 to 530 of the B-chain region of human prothrombin, a region of thrombin that is highly conserved among serine proteases. The second peptide represented residues 517 to 520 of prothrombin, a region of thrombin homologous to the fibronectin cell binding domain.
Because p517-520 is homologous to the fibronectin cell binding domain, a peptide having the sequence Arg-Gly-[…]-Ser (SEQ ID NO:18; the sequence of the fibronectin specific peptide) was also tested for its ability to compete for [^125I]-alpha-thrombin binding.

[2] = test system: full-thickness, 2 cm-diameter excisions on the dorsum; assay: Wound closure, full-thickness excisions in rats (Example 1, TP508-Ala); type: in vivo, male Sprague-Dawley rats; settings: for wound area smaller than controls: 0.1 μg per wound, topical; for wound healing activity compared with TP508: Example 1, 0.1 μg per wound
Description: as §1
Each group contained 6 rats.
as §2, §3, §4
Each data point represents the mean and standard error of the mean of 12 wounds from 6 rats. Statistical comparisons between groups were made using a repeated measures analysis of variance; Fisher's LSD was used for post hoc testing between groups.

[3] = Dimer formation / stability in saline solution by HPLC; type: physicochemical; settings: 5 mg/mL, 4° C.
Text: Over a time period of 6 months, triplicate samples were taken at intervals from the solution.
The area percent of each HPLC peak was plotted in FIG. 3. The peak area percent corresponds directly to the percent of material in solution.
Over a time period of 1 month, triplicate samples were taken at intervals from the solution. […] The area percent of each HPLC peak was plotted in FIG. 4. The peak area percent corresponds directly to the percent of material in solution.
Over a time period of 1 month, triplicate samples were taken at intervals from the solution. […] The area percent of each HPLC peak was plotted in FIG. 5. The peak area percent corresponds directly to the percent of material in solution.

H-Ala-Gly-Tyr-Lys-Pro-Asp-Glu-Gly -Lys-Arg-Gly-Asp-Ala-Ser-Glu-Gly-Asp-Ser-Gly-Gly-Pro-Phe-Val-NH2 (H-AGYKPDEGKRGDASEGDSGGPFV-NH2) [TP508-Ser]
wound area reduced ([1]; post-wounding Day 7): 18.2%
wound area reduced ([1]; post-wounding Day 10): 43.3%
wound healing activity compared with TP508 [1]: equivalent to TP508 in efficacy and potency
wound healing activity compared with TP508 ([1]; listed as TP508 Cys→Ser): about the same level of activity toward the thrombin receptor as TP508

DACEGDSGGPFV (Thrombin Peptide Derivative) [p519-530]
effect on DNA synthesis (NIL cells): enhanced DNA synthesis
Concentration Required for 30% Inhibition (thrombin receptors): 200 nM
Maximal % Inhibition (thrombin receptors; at 800 nM, ME cells): 51%
fold higher concentration than p508-530 required for 30% inhibition of [125I]-alpha-thrombin binding (thrombin receptors): 33 fold

RGDA (Thrombin Peptide) [p517-520]
effect on DNA synthesis (NIL cells): inhibited DNA synthesis
Concentration Required for 30% Inhibition (thrombin receptors): 300 nM
fold higher concentration than p508-530 required for 30% inhibition of [125I]-alpha-thrombin binding (thrombin receptors): 50 fold

H-Ala-Gly-Tyr-Lys-Pro-Asp-Glu-Gly-Lys-Arg -Gly-Asp-Ala-Ala-Glu-Gly-Asp-Ser-Gly-Gly-Pro-Phe-Val-NH2 (H-AGYKPDEGKRGDAAEGDSGGPFV-NH2) [TP508-Ala]
wound area smaller than controls ([2]; post-wounding Day 7): 18.7%
wound area smaller than controls ([2]; post-wounding Day 10): 25.1%
wound healing activity compared with TP508 [2]: equivalent to TP508 in efficacy and potency
wound healing activity compared with TP508 ([2]; listed as TP508 Cys→Ala): about the same level of activity toward the thrombin receptor as TP508
HPLC peak area of monomer / peptide over time ([3]; 1 month): no decrease over time
conversion to dimer ([3]; 1 month): does not convert to dimer
conversion to dimer ([3]; 6 months): no dimerization

Arg-Gly-Ala-Ser (RGAS; Fibronectin Specific Peptide)
competition with [125I]-alpha-thrombin for binding (thrombin receptors; at a concentration of 1.3 μM): did not compete
